# Assays:
# FGFR-4 = FGFR-4 (Homo sapiens, UniProt P22455, G388R); assay type: cell-based
# FGFR-1 = FGFR-1 (Homo sapiens, UniProt P11362); assay type: cell-based
# Sequence of FGFR-1 (P11362 22-822): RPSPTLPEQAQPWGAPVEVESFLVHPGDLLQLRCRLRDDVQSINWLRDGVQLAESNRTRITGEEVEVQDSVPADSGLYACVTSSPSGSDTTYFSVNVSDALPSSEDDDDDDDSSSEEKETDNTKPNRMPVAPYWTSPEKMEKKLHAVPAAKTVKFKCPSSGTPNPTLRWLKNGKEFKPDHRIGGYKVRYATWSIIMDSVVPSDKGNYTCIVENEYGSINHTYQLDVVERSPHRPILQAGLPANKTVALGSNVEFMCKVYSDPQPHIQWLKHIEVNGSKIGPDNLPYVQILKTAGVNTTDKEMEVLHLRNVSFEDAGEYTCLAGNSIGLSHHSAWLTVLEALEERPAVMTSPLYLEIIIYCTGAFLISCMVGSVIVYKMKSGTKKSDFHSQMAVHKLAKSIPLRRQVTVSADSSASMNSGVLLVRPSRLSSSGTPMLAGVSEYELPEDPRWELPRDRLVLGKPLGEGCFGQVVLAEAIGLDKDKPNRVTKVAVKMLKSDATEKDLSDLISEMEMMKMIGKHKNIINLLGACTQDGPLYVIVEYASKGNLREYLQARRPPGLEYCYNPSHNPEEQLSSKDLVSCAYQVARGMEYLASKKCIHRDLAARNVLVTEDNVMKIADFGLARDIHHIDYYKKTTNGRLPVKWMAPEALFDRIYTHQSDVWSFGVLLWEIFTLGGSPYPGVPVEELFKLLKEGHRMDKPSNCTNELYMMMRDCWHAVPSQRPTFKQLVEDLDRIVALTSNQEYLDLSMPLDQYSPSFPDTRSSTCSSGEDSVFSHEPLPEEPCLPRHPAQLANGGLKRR
# Sequence of FGFR-4 (P22455 22-802 G388R): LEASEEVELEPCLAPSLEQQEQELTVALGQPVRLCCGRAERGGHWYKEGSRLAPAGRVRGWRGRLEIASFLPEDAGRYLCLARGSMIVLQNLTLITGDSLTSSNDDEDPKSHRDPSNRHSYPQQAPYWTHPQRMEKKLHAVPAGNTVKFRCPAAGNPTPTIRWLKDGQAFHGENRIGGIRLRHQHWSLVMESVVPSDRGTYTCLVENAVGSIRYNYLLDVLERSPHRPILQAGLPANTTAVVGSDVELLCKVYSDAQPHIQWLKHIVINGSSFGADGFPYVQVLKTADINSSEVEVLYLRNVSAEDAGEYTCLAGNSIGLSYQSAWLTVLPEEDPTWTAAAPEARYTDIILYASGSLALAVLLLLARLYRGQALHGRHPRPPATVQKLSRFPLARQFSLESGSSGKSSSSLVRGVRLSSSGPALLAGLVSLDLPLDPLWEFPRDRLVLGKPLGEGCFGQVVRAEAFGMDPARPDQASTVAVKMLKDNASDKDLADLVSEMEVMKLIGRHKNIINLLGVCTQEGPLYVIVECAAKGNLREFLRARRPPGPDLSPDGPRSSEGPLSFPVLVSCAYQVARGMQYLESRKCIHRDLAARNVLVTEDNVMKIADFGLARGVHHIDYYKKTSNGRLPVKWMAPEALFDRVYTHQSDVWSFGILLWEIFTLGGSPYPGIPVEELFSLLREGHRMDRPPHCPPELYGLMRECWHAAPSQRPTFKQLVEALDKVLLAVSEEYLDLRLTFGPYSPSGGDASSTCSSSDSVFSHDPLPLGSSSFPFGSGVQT
substance,measurement,setting,value
AZ8010,% inhibition at 100 nM,FGFR-4,75
same,% inhibition at 100 nM,FGFR-1,86

# From publication PMC4654778 (Clinical cancer research : an official journal of the …, 2012)
